Publication PMC7115544 (European Journal of Medicinal Chemistry, 2010)
Like-named read-outs stand apart in the source and are kept apart here.

Tests used:
Reovirus-1 = experiment: organism not typed; type: cell-based; conditions: Vero, read-out: EC50 Reovirus-1
Para influenza-3 virus = experiment: organism not typed; type: cell-based; conditions: Vero, read-out: EC50 Para influenza-3 virus
in vitro = conditions: dog
MDCK cells [1] = experiment: Cytotoxicity in MDCK cell cultures; type: cell-based, canine
[2] = tested on: Herpes simplex virus-1 (KOS); experiment: microbe, parasite or virus in culture; type: cell-based
[3] = tested on: Herpes simplex virus-1 TK- KOS ACVr; type: cell-based
Feline Herpes Virus = experiment: Anti-Feline Herpes Virus activity in CRFK cell cultures; type: cell-based; conditions: for EC50: CRFK, read-out: EC50 Feline Herpes Virus
[4] = tested on: Herpes simplex virus-2 (G); experiment: microbe, parasite or virus in culture; type: cell-based
HEL cell cultures = conditions: human
Vero cell cultures = conditions: African green monkey
HeLa cell cultures = conditions: human
Vaccinia virus = experiment: microbe, parasite or virus in culture; type: cell-based; conditions: Orthopoxvirus vaccinia, HEL, read-out: EC50 Vaccinia virus
[5] = tested on: Vesicular stomatitis virus; experiment: microbe, parasite or virus in culture; type: cell-based; conditions: HEL, read-out: EC50 Vesicular stomatitis virus
Influenza B = experiment: microbe, parasite or virus in culture; type: cell-based
MDCK cells [6] = tested on: MDCK cells
[7] = tested on: Feline Corona Virus (FIPV); experiment: Anti-Feline Corona Virus activity in CRFK cell cultures; type: cell-based; conditions: MTS assay
[8] = microscopically detectable alteration of normal cell morphology

**Q.** Which EC50 (Reovirus-1) does the source give for Nc1ncnc2c1ncn2C[C@H](O)CO [(S)-DHPA, reference compound] here?
**A.** > 250 µM

**Q.** And the EC50 (Para influenza-3 virus)?
**A.** > 250 µM

**Q.** For NC12CC3CC(CC(C3)C1)C2 [Amantadin, reference compound], which CC50 (in vitro) is on record?
**A.** > 1000 µM

**Q.** And the “Cytotoxicity Minimum cytotoxic concentration” value (MDCK cells [1]; reference compounds)?
**A.** >1000 µM

**Q.** For O=c1c2ccccc2nc(-c2ccccc2)n1/N=C/c1ccccc1O [Compound 2a, 3-[(2-Hydroxy-benzylidine)-amino]-2-phenyl-3H-quinazolin-4one], which “selectivity index, herpes simplex virus-1 (KOS)” value [2] is on record?
**A.** 100

**Q.** And the “selectivity index, herpes simplex virus-1 TK- KOS ACVr” value [3]?
**A.** 100

**Q.** And the EC50 (Feline Herpes Virus)?
**A.** > 4 µg/mL

**Q.** And the EC50 (Para influenza-3 virus)?
**A.** > 20 µg/mL

**Q.** And the “selectivity index, herpes simplex virus-2 (G)” value [4]?
**A.** 100

**Q.** What about the Minimum cytotoxic concentration (HEL cell cultures) of the same molecule?
**A.** 100 µg/mL

**Q.** And the “Cytotoxicity Minimum cytotoxic concentration” value (MDCK cells [1]; [8])?
**A.** ≥0.8 µg/mL

**Q.** And the Minimum cytotoxic concentration (Vero cell cultures)?
**A.** 100 µg/mL

**Q.** For O=c1c2ccccc2nc(-c2ccccc2)n1/N=C/c1cccc([N+](=O)[O-])c1 [Compound 2b, 3-[(3-Nitro-benzylidine)-amino]-2-phenyl-3H-quinazolin-4one], which EC50 (Reovirus-1) is on record?
**A.** > 4 µg/mL

**Q.** What about the EC50 (Feline Herpes Virus) of the same molecule?
**A.** > 4 µg/mL

**Q.** What about the EC50 (Para influenza-3 virus) of the same molecule?
**A.** > 4 µg/mL

**Q.** What about the Minimum cytotoxic concentration (HEL cell cultures) of the same molecule?
**A.** ≥20 µg/mL

**Q.** Which results are given for COc1ccc(/C=N/n2c(-c3ccccc3)nc3ccccc3c2=O)cc1 [Compound 2c, 3-[(4-Methoxy-benzylidine)-amino]-2-phenyl-3H-quinazolin-4one]?
**A.** EC50 (Reovirus-1): > 20 µg/mL; EC50 (Feline Herpes Virus): > 4 µg/mL; EC50 (Para influenza-3 virus): > 20 µg/mL; Minimum cytotoxic concentration (Vero cell cultures): 100 µg/mL

**Q.** With O=c1c2ccccc2nc(-c2ccccc2)n1/N=C/c1ccccc1 [Compound 2f, 3-(Benzylidine-amino)-2-phenyl-3H-quinazolin-4one] as the molecule, how does the EC50 (Reovirus-1) read?
**A.** > 4 µg/mL

**Q.** What about the EC50 (Feline Herpes Virus) of the same molecule?
**A.** > 0.8 µg/mL

**Q.** What about the EC50 (Para influenza-3 virus) of the same molecule?
**A.** > 4 µg/mL

**Q.** Which EC50 (Reovirus-1) does the source give for O=c1c2ccccc2nc(-c2ccccc2)n1/N=C/c1ccc(O)cc1 [Compound 2g, 3-[(4-Hydroxy-benzylidine)-amino]-2-phenyl-3H-quinazolin-4one] here?
**A.** > 20 µg/mL

**Q.** And the EC50 (Feline Herpes Virus)?
**A.** > 20 µg/mL

**Q.** And the Minimum cytotoxic concentration (HeLa cell cultures)?
**A.** 100 µg/mL

**Q.** What about the EC50 (Para influenza-3 virus) of the same molecule?
**A.** > 20 µg/mL

**Q.** And the Minimum cytotoxic concentration (HEL cell cultures)?
**A.** 100 µg/mL

**Q.** What about the Minimum cytotoxic concentration (Vero cell cultures) of the same molecule?
**A.** 100 µg/mL

**Q.** Which EC50 (Reovirus-1) does the source give for C/C(=N\n1c(-c2ccccc2)nc2ccccc2c1=O)c1ccccc1 [Compound 2h, 2-Phenyl-3(1-phenyl-ethylideneamino)-3H-quinazolin-4one] here?
**A.** > 20 µg/mL

**Q.** And the EC50 (Feline Herpes Virus)?
**A.** > 0.8 µg/mL

**Q.** What about the Minimum cytotoxic concentration (HeLa cell cultures) of the same molecule?
**A.** >100 µg/mL

**Q.** And the EC50 (Para influenza-3 virus)?
**A.** > 20 µg/mL

**Q.** What about the Minimum cytotoxic concentration (HEL cell cultures) of the same molecule?
**A.** >100 µg/mL

**Q.** And the “Cytotoxicity Minimum cytotoxic concentration” value (MDCK cells [1]; [8])?
**A.** 100 µg/mL

**Q.** And the Minimum cytotoxic concentration (Vero cell cultures)?
**A.** 100 µg/mL

**Q.** Which results are given for C/C(=N\n1c(-c2ccccc2)nc2ccccc2c1=O)c1ccc(O)cc1 [Compound 2i, 3-[1-(4-Hydroxy-phenyl)-ethylideneamino]-2-phenyl-3H-quinazolin-4one]?
**A.** EC50 (Reovirus-1): > 100 µg/mL; EC50 (Feline Herpes Virus): > 100 µg/mL; Minimum cytotoxic concentration (HeLa cell cultures): >100 µg/mL; EC50 (Para influenza-3 virus): > 100 µg/mL; Minimum cytotoxic concentration (HEL cell cultures): >100 µg/mL; Cytotoxicity Minimum cytotoxic concentration (MDCK cells [1]; [8]): >100 µg/mL; Minimum cytotoxic concentration (Vero cell cultures): >100 µg/mL

**Q.** For O=c1c2ccccc2nc(-c2ccccc2)n1/N=C/c1ccc(Cl)cc1 [Compound 2j, 3-[(4-Chloro-benzylidine)-amino]-2-phenyl-3H-quinazolin-4one], which EC50 (Reovirus-1) is on record?
**A.** > 4 µg/mL

**Q.** And the EC50 (Feline Herpes Virus)?
**A.** > 20 µg/mL

**Q.** What about the EC50 (Para influenza-3 virus) of the same molecule?
**A.** > 4 µg/mL

**Q.** And the Minimum cytotoxic concentration (HEL cell cultures)?
**A.** 100 µg/mL

**Q.** Which EC50 (Reovirus-1) does the source give for COc1ccc(/C=N/n2c(-c3ccccc3)nc3ccccc3c2=O)cc1O [Compound 2k, 3-[(3-Hydroxy-4-methoxy-benzylidine)-amino]-2-phenyl-3H-quinazolin-4one] here?
**A.** > 20 µg/mL

**Q.** And the EC50 (Feline Herpes Virus)?
**A.** > 20 µg/mL

**Q.** And the EC50 (Para influenza-3 virus)?
**A.** > 20 µg/mL

**Q.** What about the Minimum cytotoxic concentration (HEL cell cultures) of the same molecule?
**A.** 100 µg/mL

**Q.** And the Minimum cytotoxic concentration (Vero cell cultures)?
**A.** 100 µg/mL

**Q.** Which results are given for COc1ccccc1/C=N/n1c(-c2ccccc2)nc2ccccc2c1=O [Compound 2l, 3-[(2-Methoxy-benzylidine)-amino]-2-phenyl-3H-quinazolin-4one]?
**A.** EC50 (Reovirus-1): > 20 µg/mL; EC50 (Feline Herpes Virus): > 4 µg/mL; EC50 (Para influenza-3 virus): > 20 µg/mL; Minimum cytotoxic concentration (HEL cell cultures): 100 µg/mL; Minimum cytotoxic concentration (Vero cell cultures): 100 µg/mL

**Q.** Which EC50 (Vaccinia virus) does the source give for Nc1nc(O)c2ncn(COC(CO)CO)c2n1 [Ganciclovir, reference compound] here?
**A.** > 100 µM

**Q.** What about the EC50 (Feline Herpes Virus) of the same molecule?
**A.** 0.8 µM

**Q.** What about the EC50 [5] of the same molecule?
**A.** > 100 µM

**Q.** What about the Minimum cytotoxic concentration (HEL cell cultures) of the same molecule?
**A.** >100 µM

**Q.** For NC(=O)c1ncn([C@@H]2O[C@H](CO)[C@@H](O)[C@H]2O)n1 [Ribavirin, reference compound], which EC50 ([2]; Human alphaherpesvirus 1, HEL, read-out: EC50 Herpes simplex virus-1 (KOS)) is on record?
**A.** > 250 µM

**Q.** What about the EC50 (Reovirus-1) of the same molecule?
**A.** > 250 µM

**Q.** And the EC50 (Vaccinia virus)?
**A.** > 250 µM

**Q.** And the EC50 ([4]; Human alphaherpesvirus 2, HEL, read-out: EC50 Herpes simplex virus-2 (G))?
**A.** > 250 µM

**Q.** And the EC50 (Influenza B; Influenza B virus, MDCK, read-out: Antiviral EC50 Influenza B Visual CPE score)?
**A.** 9 µM

**Q.** What about the “Cytotoxicity Minimum cytotoxic concentration” value (MDCK cells [1]; reference compounds) of the same molecule?
**A.** ≥100 µM

**Q.** Which CC50 (in vitro) does the source give for CC(N)C12CC3CC(CC(C3)C1)C2 (stereo not shown) [Rimantadin] here?
**A.** 472 µM

**Q.** For Oseltamivir carboxylate, which CC50 (MDCK cells [6]) is on record?
**A.** > 100 µM

**Q.** What about the EC50 (Influenza B; read-out: Antiviral EC50 Influenza B MTS, […], MTS assay, reference compounds) of the same molecule?
**A.** 1.5 µM

**Q.** And the “Cytotoxicity Minimum cytotoxic concentration” value (MDCK cells [1]; reference compounds)?
**A.** >100 µM

B1: UDA: reference substance in Table 4, not defined in the text (protein, UniProt P11218 24-372, looked up)
Lectin/endochitinase 1: QRCGSQGGGGTCPALWCCSIWGWCGDSEPYCGRTCENKCWSGERSDHRCGAAVGNPPCGQDRCCSVHGWCGGGNDYCSGSKCQYRCSSSVRGPRVALSGNSTANSIGNVVVTEPLFDQMFSHRKDCPSQGFYSYHSFLVAAESFPAFGTIGDVATRKREVAAFLAHISQATSGERSDVENPHAWGLCHINTTTVTENDFCTSSDWPCAAGKKYSPRGPIQLTHNFNYGLAGQAIGEDLIQNPDLVEKDPIISFKTALWFWMSQHDNKPSCHDIVLNANSAANRIPNKGVIGNIISRAFGHDDFAVRSSSIGFYKRYCDMLGVSYGHDLKYWFDNTPSSEFQRIQMRVAA
**Q.** Which “EC50 Feline Corona Virus (FIPV)” value [7] does the source give for B1 here?
**A.** 11.7 µg/mL

**Q.** And the “EC50 Feline Herpes Virus” value (Feline Herpes Virus; CRFK cell cultures, MTS assay)?
**A.** 53.1 µg/mL
